Laboratory results from patent publication US8580789B2, “Treating glaucoma” (The Cleveland Clinic Foundation, priority 2007, dated 2013).

Tests used:
[1] = system: optic nerve/lamina cribrosa complex; experiment: Photographic circumferential strain analysis during IOP elevation, ON/LC; set-up: species or system porcine; settings: Group 3; GTA on PS only; IOP 2-4 to 80 mmHg
Protocol: Eighteen porcine globes were divided evenly into 3 groups. The optic nerves were transected to expose the ON/LC, and each globe was infused through an in-line pressure transducer for direct IOP control. Surface wave velocity, a non-destructive measure of tissue stiffness, was measured across the ON/LC and PS before and after collagen crosslinking at IOP of 10 and 30 mmHg (groups 1 and 2) and at each globe's preinflation IOP and 80 mmHg (group 3). In group 3, papillary strain was measured by analyzing the displacement of fiducial marks immediately adjacent to the ON/LC using digital photography.
In group 3 (n=6), the same procedure described for group 2 was implemented with the following exceptions. First, four fiducial ink marks were placed in each quadrant of the PS immediately adjacent to the ON/LC prior to measurement. High-resolution (7.1 megapixel) digital photos were then taken at both low and high IOP before and after crosslinking. The vertical and horizontal distances between the outer extent of the ink marks and the outer margins of the optic nerve were measured in Photoshop (Adobe Systems, Inc., San Jose, Calif.), and the centripetal displacement of the fiducial marks (Δ1) was divided by the initial distance between the marks (10) to yield dimensionless indicators of circumferential strain (ζ=Δ1/10) in the peripapillary sclera and ON/LC, respectively. Second, measurements were acquired at each eye's pre-inflation pressure (between 2 to 4 mmHg) and at 80 mmHg to ensure that measurable changes in SWV and ON/LC geometry would be generated in at least one experimental group. As in group 2, the peripapillary sclera was selectively exposed to GTA and post-crosslinking measurements were repeated at low and high IOP. Same-eye statistical comparisons of wave velocity and strain were performed with paired student's t-tests.

porcine sclera = settings: scleral strips; 1 hour glutaraldehyde, 5 days glyceraldehydes, 30 minutes UVA for riboflavin/UVA; cited from earlier work
human sclera = settings: scleral strips; 1 hour glutaraldehyde, 5 days glyceraldehydes, 30 minutes UVA for riboflavin/UVA; cited from earlier work

O=CCCCC=O [GTA, glutaraldehyde]
Average Circumferential Strain of ON/LC with IOP elevation, Post-Crosslinking Mean ± SD [1]: 0.0 ± 0.0% | Horizontal Circumferential Strain of ON/LC with IOP elevation, Post-Crosslinking Mean ± SD [1]: 0.0 ± 0.0% | Vertical Circumferential Strain of ON/LC with IOP elevation, Post-Crosslinking Mean ± SD [1]: 0.0 ± 0.0% | Rise in porcine scleral stress (rigidity) (porcine sclera): 8 × | Rise in human scleral stress (rigidity) (human sclera): 122%
